Measurements reported in US10882826B2, “Quinolinone or quinazolinone comprising antibiofilm compositions, compounds and methods and uses relating thereto” (University College Cork—National University of Ireland, priority 2015, dated 2021).

System: DU145
Assay: LDH release cytotoxicity, DU145
Assay type: cell-based
Details: DU145 cell line; percentage of 0.1% Triton
Experimental: Lactate dehydrogenase (LDH) release from IB3 lung epithelial cells was assayed as a measure of cytotoxicity using an LDH colorimetric kit (Roche) according to manufacturers' instructions. Briefly, IB3-1 cells were seeded onto 96 well plates and treated with methanol (control) and test compounds (100 μM). Following 16 hr incubation at 37° C. and 5% CO2, supernatants were removed and added to catalyst reaction mixture in a fresh plate and further incubated at 37° C. and 5% CO2 for 30 mins to allow for colour development. After this period, the plate was analysed on an ELISA plate reader at OD490 nm. Cytotoxicity was expressed as a percentage of cells treated with 0.1% (v/v) Triton (100% cytotoxicity). The results are detailed in table 3:
The above experiments were repeated, testing some compounds against further cell lines (A549, DU145 and HeLa).

Structure (SMILES): CCCCCCCc1cc(=O)c2cc(Cl)ccc2[nH]1 [Compound C4]
- Cytotoxicity, Mean (LDH release): 24.42%
